Reference: patent US20020127263A1, “Peroxisome proliferator-acitvated receptor gamma ligand eluting medical device” (priority 2001, published 2002)

How the values were obtained:
[1] = system: Human coronary artery endothelial cells (HCAEC); assay: HCAEC proliferation inhibition by Ciglitazone; format: cell-based; conditions: Endothelial cell, day four, both cell culture schemes, FIG. 2a
Procedure: Human coronary artery endothelial cells (HCAEC) were seeded in 24 well polystyrene tissue culture plates at a density of 5×10^3 cells per well. Two different feeding strategies and reading strategies were employed. Strategy 1: Cells were plated in cell culture media containing various concentrations of Ciglitazone and incubated at 37° C. for 48 hours. After the initial 48 hour incubation, the Ciglitazone containing plating media was changed and the cells were fed with drug free media and incubated for an additional 48 hours and then read. Strategy 2: Cells were plated in cell culture media containing various concentrations of Ciglitazone and incubated at […] for 48 hours. After the initial 48 hour incubation, the Ciglitazone-containing plating media was changed and the cells were fed with Ciglitazone-containing media and incubated for an additional 48 hours and then read. On day four cultures were analyzed to determine the proliferation inhibition effects of Ciglitazone. […] graphically depicts the percent inhibition at Ciglitazone levels between 0.001 μg/mL to 50 μg/mL for both cell culture schemes. It can be seen from FIG. 2a that significant HCAEC inhibition (>50% inhibition) begins at a dosage of 5 μg/mL and rises dramatically to nearly 100% at 10 μg/mL. FIG. 2b graphically depicts the same results in bar graph form based on cell counts.

[2] = system: HCAECs; assay: Ciglitazone cytotoxicity against HCAECs (lactate dehydrogenase); format: cell-based, Human; conditions: HCAEC, 0.001 μg/mL to 10 μg/mL Ciglitazone, after 24 hours, FIG. 2c
Procedure: (§1) Ciglitazone cytotoxicity against HCAECs was evaluated by seeding 24 well cell culture plates with 5.0×10^5 HCAE cells/mL of cell culture media containing from 0.001 μg/mL to 10 μg/mL of Ciglitazone. Samples were taken after 24 hours and tested for lactate dehydrogenase […] concentration using methods known to those having ordinary skill in the art. Elevated LDL levels indicate cytotoxicity. FIG. 2c graphically depicts the cytotoxicity testing results.

[3] = system: Human coronary smooth muscles cells (HCASMC); assay: HCASMC proliferation inhibition by Ciglitazone; format: cell-based; conditions: day four, both cell culture schemes, FIG. 1a
Procedure: Human coronary smooth muscles cells (HCASMC) were seeded in 24 well polystyrene tissue culture plates at a density of 5×10^3 cells per well. Two different feeding and reading strategies were employed. Strategy 1: Cells were plated in cell culture media containing various concentrations of Ciglitazone and incubated at 37° C. for 48 hours. After the initial 48 hour incubation, the Ciglitazone containing plating media was changed and the cells were fed with drug free media and incubated for an additional 48 hours and then read. Strategy 2: Cells were plated in cell culture media containing various concentrations of Ciglitazone and incubated at […] for 48 hours. After the initial 48 hour incubation, the Ciglitazone-containing plating media was changed and the cells were fed with Ciglitazone-containing media and incubated for an additional 48 hours and then read. On day four cultures were analyzed to determine the proliferation inhibition effects of Ciglitazone. FIG. 1a graphically depicts the percent inhibition at Ciglitazone levels between 0.001 μg/mL to 50 μg/mL for both cell culture schemes. It can be seen from FIG. 1a that significant HCASMC inhibition (>50% inhibition) begins at a dosage of 10 μg/mL and rises dramatically to nearly 100% at 50 μg/mL. FIG. 1b graphically depicts the same results in bar graph form based on cell counts.

[4] = system: HCASMCs; assay: Ciglitazone cytotoxicity against HCASMCs (lactate dehydrogenase); format: cell-based, Human; conditions: HCASMC, 0.001 μg/mL to 10 μg/mL Ciglitazone, after 24 hours, FIG. 1c
Procedure: as §1, with “HCASMCs” for “HCAECs”, “5.0×10^5HCASM” for “5.0×10^5 HCAE”, “indicates” for “indicate”, “1c” for “2c”

For CC1(COc2ccc(CC3SC(=O)NC3=O)cc2)CCCCC1 (stereo not drawn) [Ciglitazone], the inhibition at 5 µg/mL ([1]; 5 μg/mL Ciglitazone) was over 50%, the inhibition at 10 µg/mL ([1]; 10 μg/mL Ciglitazone) was about 100% and the “cytotoxicity (lactate dehydrogenase concentration)” value [2] was “No cytotoxicity was detected”. The inhibition at 10 µg/mL ([3]; 10 μg/mL Ciglitazone) was over 50%, the inhibition at 50 µg/mL ([3]; 50 μg/mL Ciglitazone) was about 100% and the “cytotoxicity (lactate dehydrogenase concentration)” value [4] was “No cytotoxicity was detected”.
